Results as given in patent US20190216848A1, “New Use of Product for Skin Treatment” (BioCool AB, priority 2016, published 2019).
Entries after “also recorded” stand apart in the source; their conditions may differ.

What was measured:
[1] = system: patients with acne vulgaris; conditions: references (9), (10), (12); cited from earlier work
[2] = Duration of effectiveness of the prepared aqueous solution; assay type: physicochemical; conditions: 1-5 g in 0.05-1 dl of water at 35-40° C.; effectiveness gradually decreases
Procedure: The solution obtained according to the method above is effective for about 24 h. […] A new solution must be prepared after 24 hours as the effectiveness of the singlet oxygen in the solution has decreased below an efficient level for treatment. The solution is to be applied to the face and/or affected skin at least once daily.

[3] = system: patients diagnosed with moderate acne (Acne vulgaris); test: Acne vulgaris pilot study: DLQ (Dermatology Life Quality Index) symptom rating; assay type: in vivo, human
Text: (§1) Statistical Methods: Dropouts included in the result were 2 patients. These patients were followed up at the doctor's appointment number 2 and the results were included in the so-called “intention to treat” where the values produced two visits was the same for the coming weeks for follow-up visits. The statistical analysis used was t-test and Wilcoxon rank-sum test.
(§2) Each patient received the sodium percarbonate at home. […] This procedure was repeated daily by the patient. […] Follow-up visits occurred weekly for four weeks.
Photography: Each patient was photographed prior to initiation of treatment, and weekly for four weeks. Portrait photo is taken from the front and profile of each view of the face. Photos were taken with the same camera and camera settings and the same photographer. The same light was used by 45-degree angle. However, technology is not validated and all the photos were not taken exactly the same. Each patient was encoded by the study manager with a number. After all the photos were taken, outside observers (fellow doctor) counted the number of acne papule for each patient for each visit, without knowing the visit week during which the photo was taken. […] Results were calculated as an average of the number of acne papule for each visit at the group level. […] Even this was calculated with the average at group level. […]

[4] = system: patients diagnosed with moderate acne (Acne vulgaris); conditions: four weeks of treatment
Procedure: Treatment and follow-up: On the first visit to a doctor, patients received the same information and instructions as given by the manufacturer BioCool®. Each patient received the sodium percarbonate at home. The jars of powder were unmarked but if the patient wished to know the content they were informed. All processing was done at residences of the patient by the patient. 5 ml of sodium percarbonate was dissolved in 5 ml of water at a temperature of 35-40° C. to form a solution. The solution was applied to the face using the fingers, and washed away with tap water after 5 minutes. This procedure was repeated daily by the patient. After about one hour after the treatment the subjects could, if desired, lubricate the skin with a moisturizing product, allowing enough time for the skin pores to close up for any additional product. Follow-up visits occurred weekly for four weeks. At each visit, the patient had completed the rating scale DLQ (Dermatology Life Quality Index), they were photographed and subject to an open interview.
Interview: The patient's subjective experience was investigated with a semi-structured interview based on the query field (8). The interview was conducted by research doctors. […] No recording method was used.

[5] = system: individuals with diabetes and neuropathy, feet with moderate to severe skin conditions; test: Diabetic Peripheral Neuropathy foot bath study: skin condition of the feet by photos; assay type: in vivo, human; conditions: for Condition of the feet / skin condition, visual (photos): all patients included, daily foot bath per study protocol, 6 weeks, preliminary results
Procedure: I. Improvement in skin condition evaluated by photos according to a pre-set scale (1-5): The target population include in this evaluation are adult individuals with diabetes and neuropathy, with feet with moderate to severe skin conditions 7.1.3 Frequency of application. Daily application for 6 weeks or until the signs and symptoms are cleared, then once a week. 1. Start by placing the feet in the footbath, containing 2-3 litres (about 1 gallon) of lukewarm water (about 38° C.). Measure out 15 ml (about 1 tbs.) of granules and add to the footbath. NB! The order is important, the feet must be in the bath before adding the granules. 2. Bathe the feet for about 20 minutes This is a 6-week, single centre, open label evaluation conducted in patients suffering from Diabetic Feet of neuropathic origin with moderate to severe non ulcer pathology (dry skin, cracks, callosities) 9.2 STUDY FLOW CHART visits 0 and 6 weeks for photos, skin evaluation, test protocol and evaluation of safety and concordance At each visit a required medical evaluations is performed at inclusion (0) and 6 weeks (+/−3 days). A photograph is performed and a test protocol is followed regarding skin condition. Any local and general intercurrent events (expected or unexpected) are recorded. Patients receive a patient care diary at their first visit. Investigators are allowed to see patients more frequently if required. 11.3 EVALUATION CRITERIA Improvement of skin condition evaluated by photos analysed by independent observers

[6] = system: patients diagnosed with moderate acne (Acne vulgaris); test: Acne vulgaris pilot study: blinded acne papule counting from photographs; assay type: in vivo, human
Text: A study consisted of a total of 16 patients, 2 males and 14 females. Mean age was 28±7 years. The study included men and women, previously healthy, between 18-45 years, not using contraception, not breastfeeding or pregnant, and having been diagnosed with moderate acne. Patients with ongoing treatment for acne vulgaris were excluded or treatment was withdrawn one month before the start of the study. Also, patients who could not follow instructions and who were assumed to have poor compliance were excluded.
as §1, §2
Photography: Each patient was photographed prior to initiation of treatment, and weekly for four weeks. Portrait photo is taken from the front and profile of each view of the face. Photos were taken with the same camera and camera settings and the same photographer. The same light was used by 45-degree angle. However, technology is not validated and all the photos were not taken exactly the same. Each patient was encoded by the study manager with a number. After all the photos were taken, outside observers (fellow doctor) counted the number of acne papule for each patient for each visit, without knowing the visit week during which the photo was taken. The number of acne papules was summed up by frontal view, as well as by the two side views. Results were calculated as an average of the number of acne papule for each visit at the group level. DLQ survey summed with points for each patient for each visit. Even this was calculated with the average at group level.

microorganisms = conditions: within the range of 0.5-4% of hydrogen peroxide

COc1ccc(-c2ccc3cc(C(=O)O)ccc3c2)cc1C12CC3CC(CC(C3)C1)C2 [Adapalene]
Number of acne papules / efficacy in literature study [1]: significant reduced | Safety / tolerance in literature study [1]: safe and effective

O=C([O-])[O-].O=C([O-])[O-].OO.OO.OO.[Na+].[Na+].[Na+].[Na+] [Sodium percarbonate, sodium percarbonate]
Time the prepared solution is effective [2]: about 24 h | DLQ symptom rating, median ([3]; after 4 weeks of daily topical treatment, interquartile range 2, p 0.002): 1.5 | DLQ symptom rating, median ([3]; before treatment (baseline), interquartile range 4): 3 | Patients' description of their skin in interviews [4]: cleaner, smoother, softer and firmer | Condition of the feet (photos), patient No. 01 ([5]; FIG. 4, after 6 weeks of treatment): The large crack on the right heel has significantly improved | Condition of the feet (photos), patient No. 06 ([5]; FIG. 5, before vs after treatment): the ulcer has declined in size | Condition of the feet (photos), patient No. 9 ([5]; FIG. 6, before vs after treatment): the hardened patches are no longer present | Condition of the feet / skin condition, visual (photos) [5]: significant visual improvement | Condition of the feet / skin condition, visual (photos) ([5]; listed as sodium percarbonate): significant improvement of the skin condition | Number of acne papule over time (in words) ([6]; 4 weeks of treatment): clearly reduced; also recorded: significantly decreased | Papule count, mean ([6]; after 4 weeks of daily topical treatment (5 ml in 5 ml water, 5 minutes), SD 10.2, p <0.001 vs before): 18.3 | Papule count, mean ([6]; before treatment (baseline), 16 patients, SD 12.4): 25.4 | Time to apparent effect on the appearance of new papules ([6]; topical treatment of Acne vulgaris): ≤ 2 weeks

O=C(OOC(=O)c1ccccc1)c1ccccc1 [benzoyl peroxide]
Number of acne papules / efficacy in literature study [1]: significant reduced | Safety / tolerance in literature study [1]: safe and effective

OO [hydrogen peroxide]
Number of acne papules / efficacy in literature study [1]: at least as good | Safety / tolerance in literature study [1]: better tolerance for skin | Effect on killing off microorganisms with increasing concentration (microorganisms): practically the same
